The values that follow come from ChEMBL document CHEMBL1687837, “Roles of residues Cys69, Asn104, Phe160, Gly232, Ser237, and Asp240 in extended-spectrum beta-lactamase Toho-1” (2011).

Experiment [1] concerns Escherichia coli. Put plainly: Antibacterial activity against Escherichia coli AS226 after 18 hrs by broth microdilution method. The experiment is classed as functional. To be noted: AS226, 18 h. In general terms: In broth dilution the organism is exposed to a series of concentrations in liquid medium.
The test system of experiment [2] is Escherichia coli. Briefly: Activity of Escherichia coli beta-lactamase Toho-1 G232A mutant assessed as compound hydrolysis by spectrophotometry.
Experiment [3] relates to Escherichia coli. Put plainly: Activity of Escherichia coli beta-lactamase Toho-1 C69A mutant assessed as compound hydrolysis by spectrophotometry.
The test system of experiment [4] is Escherichia coli. Put plainly: Activity of Escherichia coli beta-lactamase Toho-1 D240A mutant assessed as compound hydrolysis by spectrophotometry.
In experiment [5] the test system is Escherichia coli. Put plainly: Ratio of Kcat to Km for Escherichia coli beta-lactamase Toho-1 N104A mutant assessed as compound hydrolysis by spectrophotometry.
Experiment [6] deals with Escherichia coli. Put plainly: Ratio of Kcat to Km for Escherichia coli beta-lactamase Toho-1 N104D mutant assessed as compound hydrolysis by spectrophotometry.
In experiment [7] the test system is Escherichia coli. Briefly: Antibacterial activity against Escherichia coli AS226 carrying pBSD6 mutant after 18 hrs by broth microdilution method. The class given is functional. To be noted: AS226, 18 h.
The subject of experiment [8] is Escherichia coli. Briefly: Antibacterial activity against Escherichia coli AS226 carrying pBSD-H2 after 18 hrs by broth microdilution method. The class given is functional. Particulars: AS226, 18 h.
Experiment [9] has as its system Escherichia coli. Briefly: Antibacterial activity against Escherichia coli AS226 carrying pBSDN104A mutant after 18 hrs by broth microdilution method. The class given is functional. Particulars: AS226, 18 h.
The subject of experiment [10] is Escherichia coli. Briefly: Activity of Escherichia coli beta-lactamase Toho-1 […] mutant assessed as compound hydrolysis by spectrophotometry.
The test system of experiment [11] is Escherichia coli. Put plainly: Antibacterial activity against Escherichia coli AS226 carrying pBSDN104D mutant after 18 hrs by broth microdilution method. To be noted: AS226, 18 h. The class given is functional.
The test system of experiment [12] is Escherichia coli. Put plainly: Ratio of Kcat to Km for Escherichia coli beta-lactamase Toho-1 C69A mutant assessed as compound hydrolysis by spectrophotometry.
In experiment [13] the test system is Escherichia coli. Put plainly: Activity of Escherichia coli beta-lactamase Toho-1 F160T mutant assessed as compound hydrolysis by spectrophotometry.
Experiment [14] deals with Escherichia coli. Put plainly: Antibacterial activity against Escherichia coli AS226 carrying pBSDC69A mutant after 18 hrs by broth microdilution method. The experiment is classed as functional. Particulars: AS226, 18 h.
Experiment [15] has as its system Escherichia coli. Briefly: Ratio of Kcat to Km for Escherichia coli beta-lactamase Toho-1 F160T mutant assessed as compound hydrolysis by spectrophotometry.
For experiment [16], the system named is Escherichia coli. Briefly: Ratio of Kcat to Km for Escherichia coli beta-lactamase Toho-1 […] mutant assessed as compound hydrolysis by spectrophotometry.
Experiment [17] has as its system Escherichia coli. Briefly: Ratio of Kcat to Km for Escherichia coli beta-lactamase Toho-1 D240S mutant assessed as compound hydrolysis by spectrophotometry.
Experiment [18] relates to Escherichia coli. Put plainly: Antibacterial activity against Escherichia coli AS226 carrying pBSDF160T mutant after 18 hrs by broth microdilution method. The class given is functional. To be noted: AS226, 18 h.
In experiment [19] the test system is Escherichia coli. Put plainly: Antibacterial activity against Escherichia coli AS226 carrying pBSDD240A mutant after 18 hrs by broth microdilution method. The experiment is classed as functional. Particulars: AS226, 18 h.
Experiment [20] concerns Escherichia coli. Put plainly: Antibacterial activity against Escherichia coli AS226 carrying pBSDD240S mutant after 18 hrs by broth microdilution method. The experiment is classed as functional. Particulars: AS226, 18 h.
In experiment [21] the test system is Escherichia coli. Briefly: Activity of Escherichia coli beta-lactamase Toho-1 N104D mutant assessed as compound hydrolysis by spectrophotometry.
Experiment [22] concerns Escherichia coli. Briefly: Ratio of Kcat to Km for Escherichia coli beta-lactamase Toho-1 G232A mutant assessed as compound hydrolysis by spectrophotometry.
The test system of experiment [23] is Escherichia coli. Briefly: Ratio of Kcat to Km for Escherichia coli beta-lactamase Toho-1 D240A mutant assessed as compound hydrolysis by spectrophotometry.
For experiment [24], the system named is Escherichia coli. Put plainly: Activity of Escherichia coli beta-lactamase Toho-1 D240S mutant assessed as compound hydrolysis by spectrophotometry.
Experiment [25] relates to Escherichia coli. Briefly: Antibacterial activity against Escherichia coli AS226 carrying pBSDS237A mutant after 18 hrs by broth microdilution method. The class given is functional. To be noted: AS226, 18 h.
For experiment [26], the system named is Escherichia coli. Put plainly: Activity of Escherichia coli beta-lactamase Toho-1 N104A mutant assessed as compound hydrolysis by spectrophotometry.

Values after ≈ are worked out from the molar mass of the structure shown. Bounds are passed on as bounds.

By MIC is commonly meant the smallest concentration in the dilution series that meets the test's criterion for growth inhibition. Higher therefore signals weaker potency. By Km is commonly meant the concentration of substrate that gives half-maximal velocity. The term kcat denotes the maximal rate divided by the concentration of active sites. Take `O=C(Cc1cccs1)N[C@@H]1C(=O)N2C(C(=O)[O-])=C(C[n+]3ccccc3)CS[C@H]12` [CEPHALORIDINE]: the MIC against Escherichia coli [1] amounted to 2 µg/mL (≈ 4.81 µM); in the experiment with Escherichia coli [7], 8 µg/mL (≈ 19.3 µM); with Escherichia coli [8], 1020 µg/mL (≈ 2460 µM); against Escherichia coli [9] it was 32 µg/mL (≈ 77 µM); in the experiment on Escherichia coli [11] it was 256 µg/mL (≈ 616 µM); in the experiment on Escherichia coli [14], 1020 µg/mL (≈ 2460 µM). Moreover, the MIC is 512 µg/mL (≈ 1230 µM) with Escherichia coli [18], 1020 µg/mL (≈ 2460 µM) in the experiment on Escherichia coli [19], 1020 µg/mL (≈ 2460 µM) in the experiment with Escherichia coli [20] and 2050 µg/mL (≈ 4930 µM) against Escherichia coli [25]. Also, the Km with Escherichia coli [2] worked out at 290 µM; in the experiment on Escherichia coli [3] it was 300 µM; in the experiment with Escherichia coli [4] it was 200 µM; in the experiment on Escherichia coli [10] it was 270 µM; in the experiment with Escherichia coli [13] it was 430 µM; in the experiment on Escherichia coli [21] it was 400 µM. Further, the Km with Escherichia coli [24] was determined as 250 µM; with Escherichia coli [26] it was 450 µM. Moreover, the kcat in the experiment on Escherichia coli [2] amounted to 440 s⁻¹; in the experiment with Escherichia coli [3], 300 s⁻¹; in the experiment on Escherichia coli [4] it was 140 s⁻¹; with Escherichia coli [10], 320 s⁻¹; in the experiment on Escherichia coli [13], 470 s⁻¹; in the experiment on Escherichia coli [21], 120 s⁻¹. The kcat in the experiment with Escherichia coli [24] is 190 s⁻¹; in the experiment with Escherichia coli [26], 99 s⁻¹. The kcat/Km was 2.2 ×10⁵ /s/M in the experiment on Escherichia coli [5]; 3 ×10⁵ /s/M with Escherichia coli [6]; 1 ×10⁶ /s/M in the experiment on Escherichia coli [12]; 1.1 ×10⁶ /s/M in the experiment with Escherichia coli [15]; 1.2 ×10⁶ /s/M with Escherichia coli [16]; 7.6 ×10⁵ /s/M with Escherichia coli [17]. The values for the kcat/Km with Escherichia coli [22] and with Escherichia coli [23] were 1.5 ×10⁶ /s/M and 7.1 ×10⁵ /s/M, respectively.

With `CO[C@@]1(NC(=O)Cc2cccs2)C(=O)N2C(C(=O)O)=C(COC(N)=O)CS[C@@H]21` [CEFOXITIN], the MIC against Escherichia coli [1] was 1 µg/mL (≈ 2.34 µM); against Escherichia coli [7], 2 µg/mL (≈ 4.68 µM); in the experiment with Escherichia coli [8], 1 µg/mL (≈ 2.34 µM); in the experiment with Escherichia coli [9] it was 1 µg/mL (≈ 2.34 µM); with Escherichia coli [11] it was 2 µg/mL (≈ 4.68 µM); against Escherichia coli [14], 2 µg/mL (≈ 4.68 µM). The MIC was determined as 2 µg/mL (≈ 4.68 µM) in the experiment on Escherichia coli [18], 1 µg/mL (≈ 2.34 µM) in the experiment on Escherichia coli [19], 1 µg/mL (≈ 2.34 µM) in the experiment with Escherichia coli [20] and 2 µg/mL (≈ 4.68 µM) with Escherichia coli [25].

For `CO/N=C(\C(=O)N[C@@H]1C(=O)N2C(C(=O)O)=C(CSc3cnns3)CS[C@H]12)c1csc(N)n1` [CEFUZONAM], the MIC against Escherichia coli [1] was below 0.125 µg/mL; against Escherichia coli [7], 2 µg/mL (≈ 3.89 µM); against Escherichia coli [8], 2050 µg/mL (≈ 3990 µM); in the experiment on Escherichia coli [9] it was 16 µg/mL (≈ 31.2 µM); against Escherichia coli [11], 64 µg/mL (≈ 125 µM); against Escherichia coli [14], 2050 µg/mL (≈ 3990 µM). Further, the MIC in the experiment on Escherichia coli [18] was 512 µg/mL (≈ 997 µM); in the experiment on Escherichia coli [19], 1020 µg/mL (≈ 1990 µM); against Escherichia coli [20], 256 µg/mL (≈ 498 µM); against Escherichia coli [25], 1020 µg/mL (≈ 1990 µM). Moreover, the Km in the experiment with Escherichia coli [2] was 190 µM; with Escherichia coli [3] it was 240 µM; in the experiment with Escherichia coli [4], 260 µM; in the experiment with Escherichia coli [10], 140 µM; with Escherichia coli [13], 220 µM; with Escherichia coli [24], 220 µM. The kcat with Escherichia coli [2] is 630 s⁻¹; in the experiment on Escherichia coli [3], 560 s⁻¹; in the experiment with Escherichia coli [4], 550 s⁻¹; with Escherichia coli [10], 130 s⁻¹; in the experiment with Escherichia coli [13], 470 s⁻¹; in the experiment with Escherichia coli [24], 430 s⁻¹. Also, the kcat/Km in the experiment with Escherichia coli [5] was 2.8 ×10⁵ /s/M; with Escherichia coli [6], 5.7 ×10⁵ /s/M; in the experiment on Escherichia coli [12], 2.3 ×10⁶ /s/M; in the experiment on Escherichia coli [15], 2.1 ×10⁶ /s/M; in the experiment with Escherichia coli [16], 9.4 ×10⁵ /s/M; in the experiment on Escherichia coli [17], 2 ×10⁶ /s/M. The kcat/Km in the experiment on Escherichia coli [22] came to 3.3 ×10⁶ /s/M; with Escherichia coli [23], 2.1 ×10⁶ /s/M.

Take `CC(C)(O/N=C(\C(=O)N[C@@H]1C(=O)N2C(C(=O)[O-])=C(C[n+]3ccccc3)CS[C@H]12)c1csc(N)n1)C(=O)O` [CEFTAZIDIME]: the MIC was below 0.125 µg/mL with Escherichia coli [1]; 0.25 µg/mL (≈ 0.457 µM) with Escherichia coli [7]; 0.25 µg/mL (≈ 0.457 µM) against Escherichia coli [8]; below 0.125 µg/mL in the experiment with Escherichia coli [9]; below 0.125 µg/mL in the experiment with Escherichia coli [11]; 4 µg/mL (≈ 7.32 µM) against Escherichia coli [14]. In addition, the MIC with Escherichia coli [18] came to 1 µg/mL (≈ 1.83 µM); against Escherichia coli [19] it was 8 µg/mL (≈ 14.6 µM); in the experiment with Escherichia coli [20], 4 µg/mL (≈ 7.32 µM); against Escherichia coli [25], 0.5 µg/mL (≈ 0.915 µM).
